Measured values published in US20090258877A1, “TRIAZOLOTRIAZINES AND TRIAZOLOPYRAZINES AND THEIR USE” (BAYER HEALTHCARE AG, priority 2007, published 2009).

Target: T1, GSK3β (Homo sapiens, UniProt P49841)
T1 construct: purchased Upstate 14-306
Test: GSK3β biochemical in vitro assay (coupled pyruvate kinase/lactate dehydrogenase, NADH fluorescence)
Settings: 5 nM GSK3β, 50 μM ATP, 40 μM GSM substrate, 30° C., 2 hours
Description: The inhibitory activity of active substances is determined in a biochemical assay. The ingredients required for this purpose are mixed in a black 384-well microtitre plate with transparent base (from Greiner, catalogue number 781092). The requirements in this connection for each well of the 384-well microtitre plate are 5 nM GSK3β (from Upstate, catalogue number 14-306), 40 μM GSK3β substrate GSM (sequence H-RRRPASVPPSPSLSRHS-(pS)-HQRR, from Upstate, catalogue number 2-533), 30 μM nicotinamide adenine dinucleotide NADH (Roche Diagnostics, catalogue number 10107735), 50 μM adenosine triphosphate ATP (from Sigma, catalogue number A7966), 2 mM phosphoenolpyruvate (from Roche, catalogue number 128112), and also about 1 U/ml of pyruvate kinase and about 1 U/ml of lactate dehydrogenase, which are present together in a stock formulation (from Roche, catalogue number 10737291001, suspension with about 450 U/ml of pyruvate kinase activity, about 450 U/ml of lactate dehydrogenase activity in […] ammonium sulphate solution pH 6), where 1 unit pyruvate kinase converts, at pH 7.6 and 37° C., 1 μmol of phosphoenolpyruvate into pyruvate per minute, and where 1 unit of lactate dehydrogenase reduces, at pH 7.5 and 37° C., 1 μmol of pyruvate to lactate per minute. The required reaction buffer in which the biochemical reaction takes place consists of 50 mM Trizma hydrochloride Tris-HCl pH: 7.5 (from Sigma, catalogue number T3253), 5 mM magnesium chloride MgCl2 (from Sigma, catalogue number M8266), 0.2 mM DL-dithiothreitol DTT (from Sigma, catalogue number D9779), 2 mM ethylenediaminetetraacetic acid EDTA (from Sigma, catalogue number E6758), 0.01% Triton X-100 (from Sigma, catalogue number T8787) and 0.05% bovine serum albumin BSA (from Sigma, catalogue number B4287).
Active substances are dissolved in dimethyl sulphoxide DMSO (from Sigma, catalogue number D8418) in a concentration of 10 mM. Active substances are added in serial concentrations of 10 μM, 1 μM, 0.1 μM, 0.01 μM, 0.001 μM, 0.0001 μM, 0.00001 μM, 0.000001 μM to the mixtures of the biochemical reaction. As control, dimethyl sulphoxide is added instead of substance in a final concentration of 0.1%.
The reaction is incubated at 30° C. for 2 hours and then the resulting fluorescence is measured in a Tecan Safire-XFLUOR4 instrument, version V4.50 (serial number 12901300283) with the specifications: measurement mode—fluorescence measured from below, excitation wavelength 340 nm, emission wavelength 465 nm, slit width excitation 5 nm, slit width emission 5 nm, gain mode 120, delay 0 μs, number of light flashes per measurement 3, and an integration time of 40 μs.
The activity of the active substances is calculated in relation to these 0% and 100%.

T1 sequence (P49841 whole entry): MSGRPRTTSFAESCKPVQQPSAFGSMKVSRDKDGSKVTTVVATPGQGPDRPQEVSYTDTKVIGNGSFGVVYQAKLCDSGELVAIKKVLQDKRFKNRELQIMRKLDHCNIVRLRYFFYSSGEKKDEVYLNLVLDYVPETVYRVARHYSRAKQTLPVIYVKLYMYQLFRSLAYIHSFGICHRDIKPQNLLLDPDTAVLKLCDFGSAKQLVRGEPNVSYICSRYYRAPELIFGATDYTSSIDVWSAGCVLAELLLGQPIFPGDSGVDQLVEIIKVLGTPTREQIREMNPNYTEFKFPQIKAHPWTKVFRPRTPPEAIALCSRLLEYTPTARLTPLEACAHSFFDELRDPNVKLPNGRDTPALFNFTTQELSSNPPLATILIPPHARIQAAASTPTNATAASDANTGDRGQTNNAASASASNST

Row | IC50 [nM] | SMILES
1 | 13 | Nc1nc(NCCNc2nc(-c3ccc(Cl)cc3Cl)cn3ncnc23)ccc1C(=O)C(F)(F)F [Example 6, 1-{2-Amino-6-[(2-{[6-(2,4-dichlorophenyl)[1,2,4]triazolo[1,5-a]pyrazin-8-yl]amino}ethyl)amino]-pyridin-3-yl}-2,2,2-trifluoroethanone]
2 | 9.1 | Nc1nc(NCCNc2nc(-c3ccc(Cl)cc3Cl)nn3cnnc23)ccc1C(=O)C(F)(F)F [Example 8, 1-{2-Amino-6-[(2-{[6-(2,4-dichlorophenyl)[1,2,4]triazolo[3,4-f][1,2,4]triazin-8-yl]amino}ethyl)-amino]pyridin-3-yl}-2,2,2-trifluoroethanone]
3 | 4.4 | CCC(=O)c1ccc(NC2CCCN(c3nc(-c4ccc(Cl)cc4Cl)nn4cnnc34)C2)nc1N (stereo not shown) [Example 11, 1-[2-Amino-6-({1-[6-(2,4-dichlorophenyl) [1,2,4]triazolo[3,4-f][1,2,4]triazin-8-yl]piperidin-3-yl}-amino)pyridin-3-yl]propan-1-one]
4 | 3.2 | N#Cc1sc(NCCNc2nc(-c3ccc(Cl)cc3Cl)cn3ncnc23)nc1N [Example 15, 4-Amino-2-[(2-{[6-(2,4-dichlorophenyl)[1,2,4]triazolo[1,5-a]pyrazin-8-yl]amino}ethyl)amino]-1,3-thiazole-5-carbonitrile]
